This data set in a line: Forced degradation studies of the drug substances. From the text:
Table 4 summarises information on the relative chemical stability of the drug substances, obtained in forced degradation studies.

Like-named read-outs stand apart in the source and are kept apart here.

Regarding `CCCCN1CCCCC1C(=O)Nc1c(C)cccc1C` (stereo not shown) [Bupivacaine], the “% Degradation” value came to 11.2%.

Turning to `CCN(CC)CC(=O)Nc1c(C)cccc1C` [Lignocaine], the “% Degradation” value (Acid, 8 Weeks) is on record as −0.3%; the “% Degradation” value (Base, 8 Weeks) turned out to be 1.1%; the “% Degradation” value (Heat, 8 Weeks) was 1.1%; the “% Degradation” value (Light, 51 × 10^6 lux hrs) is 9.9%; the “% Degradation” value (Oxidation 1, 8 Weeks) is −0.2%; the “% Degradation” value (Oxidation 2, 8 Weeks) turned out to be 3.3%. Moreover, the “% Degradation” value (Reduction, 8 Weeks) is reported as −0.3%.

Consider `CNCC(O)c1ccc(O)c(O)c1` (stereo not shown) [Adrenaline], for which the “% Degradation” value is 51.6%.

As to Cetrimide, the “% Degradation” value (Acid, 8 Weeks) is on record as 0.4%; the “% Degradation” value (Base, 8 Weeks) was found to be 0.9%; the “% Degradation” value (Heat, 8 Weeks) stood at 0.5%; the “% Degradation” value (Light, 51 × 10^6 lux hrs) was 8.9%; the “% Degradation” value (Oxidation 1, 8 Weeks) is listed as −0.2%; the “% Degradation” value (Oxidation 2, 8 Weeks) is reported as 1.0%. In addition, the “% Degradation” value (Reduction, 8 Weeks) was found to be 8.4%.
